Where two headings read alike, the source gives them in different places.
What was measured:
PLCγ2 pY1217 = experiment: Ex vivo PLCγ2 pY1217 phosphorylation in washed platelets of treated patients; parameters: species or system human; settings: CLL patients, ibrutinib 420 mg once daily or acalabrutinib 100 mg twice daily
Btk pY223 [1] = settings: CLL patients, ibrutinib 420 mg once daily or acalabrutinib 100 mg twice daily
[2] = cited from earlier work
Btk pY551 = format: cell-based, human
Tec = Tec phosphorylation, immunoprecipitation and blotting with 4G10; format: cell-based, human; settings: washed platelets 8x10^8/mL, CRP 10 μg/mL 180 s
[3] = cited from earlier work; remark: listed apart in the source
Syk pY525/6 = format: cell-based, human
Btk [4] = settings: cited from earlier work
LAT pY200 = format: cell-based, human
[5] = test system: GPVI-mediated platelet aggregation (washed platelets, CRP); experiment: Light transmission aggregometry, washed platelets stimulated with CRP; format: cell-based, human
Btk pY223 [6] = format: cell-based, human
Src pY418 = format: cell-based, human
[7] = test system: PLCγ2 pY753, pY759, pY1217; experiment: Protein phosphorylation, western blot of CRP-stimulated washed platelets: PLCγ2; format: cell-based, human
[8] = test system: platelet aggregation induced by ADP and PAR1 peptide; format: in vivo, human; settings: patients taking either inhibitor, data not shown
SLP-76 pY145 = format: cell-based, human
[9] = test system: GPVI-induced platelet aggregation; format: in vivo, human; settings: CLL patients, ibrutinib 420 mg once daily or acalabrutinib 100 mg twice daily, PRP, 2-3 h after dose, CRP 10 μg/mL
[10] = test system: Ca2+ mobilization in platelets; experiment: Measurement of [Ca2+]i in Fura-2-loaded platelets stimulated with CRP; format: cell-based, human
[11] = test system: NFAT signaling in DT40 cells; format: cell-based, chicken; settings: collagen 10 μg/mL, no serum
[12] = cited from earlier work; remark: listed apart in the source
Btk [13] = settings: doses of 2.5 mg/kg; cited from earlier work
[14] = test system: whole cell tyrosine phosphorylation; experiment: Whole cell tyrosine phosphorylation in CRP-stimulated washed platelets; format: cell-based, human
[15] = test system: ATP secretion of washed platelets; experiment: Granule release; format: cell-based, human
[16] = higher concentrations, up to 200 μM

## CC#CC(=O)N1CCC[C@H]1c1nc(-c2ccc(C(=O)Nc3ccccn3)cc2)c2c(N)nccn12 [acalabrutinib]
PLCγ2 pY1217
  Phosphorylation of PLCγ2 pY1217 ex vivo: complete inhibition
Btk pY223 [1]
  Autophosphorylation of Btk pY223 ex vivo: complete inhibition
[2]
  Half-life: 1 h
[2]; patients
  Mean peak free drug concentration in patients: 1.3 µM
Btk pY551; [16]
  Phosphorylation of Btk Y551: small reduction
Tec
  Concentration giving full blockade of Tec phosphorylation: 200 µM
  Concentration giving partial inhibition of Tec phosphorylation: approximately 1 μM
[3]
  Major hemorrhage in treated patients: not seen
Syk pY525/6; [16]
  Phosphorylation of Syk Y525/6: had no effect
Btk [4]
  IC50 for Btk relative to ibrutinib (lower): 5 fold
  Potency as an inhibitor of Btk relative to ibrutinib (lower): 5 fold
LAT pY200; [16]
  Phosphorylation of LAT Y200: had no effect
[5]; 2 μM, CRP
  Onset of aggregation: slight delay in aggregation
  Overall magnitude of aggregation response: no effect
Btk pY223 [6]; 2 μM, CRP 10 μg/mL
  Tyrosine phosphorylation of Btk on Y223: blocked
Src pY418; [16]
  Phosphorylation of Src Y418: had no effect
[7]; 2 μM, CRP 10 μg/mL
  Tyrosine phosphorylation of PLCγ2 on Y759 and Y1217: blocked
[8]
  Platelet aggregation induced by ADP and PAR1 peptide ex vivo: not altered
SLP-76 pY145; [16]
  Phosphorylation of SLP-76 Y145: small reduction
[9]
  GPVI-induced platelet aggregation ex vivo: not blocked

## C=CC(=O)N1CCC[C@@H](n2nc(-c3ccc(Oc4ccccc4)cc3)c3c(N)ncnc32)C1 [ibrutinib]
PLCγ2 pY1217
  Phosphorylation of PLCγ2 pY1217 ex vivo: complete inhibition
[10]; 70 nM
  Peak Ca2+ concentration after a high concentration of CRP: not altered
[10]; 700 nM
  Peak Ca2+ concentration after a high concentration of CRP: markedly reduced
[2]
  Initial half-life: 2 to 3 h
  Terminal half-life: 4 to 8 h
Btk pY551; 70 nM, CRP 10 μg/mL
  Phosphorylation of Btk on Y551: not altered
Btk pY551; CRP 10 μg/mL
  Dose at which inhibition of Btk Y551 phosphorylation was seen: 7 µM
[11]; high dose (range 0.5-10 μM)
  NFAT signaling, WT and KD Btk transfected cells: blocked NFAT signaling
[11]; low dose (range 0.5-10 μM)
  NFAT signaling, cells transfected with WT or KD Btk: had no effect
Tec
  Concentration giving full blockade of Tec phosphorylation: 7 µM
  Concentration giving partial blockade of Tec phosphorylation: 170 nM
[12]
  Bound to plasma proteins: 97%
Syk pY525/6; 70 nM, CRP 10 μg/mL
  Phosphorylation of Syk Y525/6: not altered
Syk pY525/6; CRP 10 μg/mL
  Dose at which inhibition of Syk Y525/6 phosphorylation was seen: 7 µM
Btk [13]
  Btk occupancy: > 95%
[14]; CRP 10 μg/mL
  Dose at which inhibition of whole cell phosphorylation was seen: 7 µM
[14]; two washing steps before CRP
  Reversibility of inhibition of global tyrosine phosphorylation: reversible on washout
LAT pY200; 70 nM, CRP 10 μg/mL
  Phosphorylation of LAT Y200: not altered
LAT pY200; CRP 10 μg/mL
  Dose at which inhibition of LAT Y200 phosphorylation was seen: 7 µM
[5]; 70 nM
  Response to a sub-maximal concentration of CRP: reduced response
[5]; 70 nM, incubation ≥5 min, CRP 10 μg/mL
  Aggregation in response to a high concentration of CRP: time-dependent delay in aggregation
[5]; 700 nM, incubation ≥30 s, CRP 10 μg/mL
  Aggregation in response to a high dose of CRP: block aggregation
Btk pY223 [6]; 70 nM, CRP 10 μg/mL
  Autophosphorylation of Btk: reduced to basal levels
Btk pY223 [6]; two washing steps before CRP
  Reversibility of inhibition of Btk pY223 autophosphorylation: irreversible
Src pY418; 70 nM, CRP 10 μg/mL
  Phosphorylation of Src Y418: not altered
Src pY418; two washing steps before CRP
  Reversibility of inhibition of Src pY418: reversible
[15]; 70 nM
  ATP secretion in response to a high concentration of CRP: no effect
[15]; 700 nM
  ATP secretion in response to a high concentration of CRP: blocked
[7]; 70 nM, CRP 10 μg/mL
  Phosphorylation of downstream PLCγ2: reduced to basal levels
[7]; two washing steps before CRP
  Reversibility of inhibition of PLCγ2 pY753 and pY1217: irreversible
[8]
  Platelet aggregation induced by ADP and PAR1 peptide ex vivo: not altered
SLP-76 pY145; 70 nM, CRP 10 μg/mL
  Phosphorylation of SLP-76 Y145: not altered
SLP-76 pY145; CRP 10 μg/mL
  Dose at which inhibition of SLP-76 Y145 phosphorylation was seen: 7 µM
[9]
  GPVI-induced platelet aggregation ex vivo: blocked

From paper PMC6269309 (Haematologica, 2018)
